This is an account of results in patent publication US20240262806A1, “INHIBITORS OF NLRP3” (PTC THERAPEUTICS, INC., priority 2021, published 2024).

Bounds are passed on as bounds.

The test system of this test is NLRP3 inflammasome. The experiment in a line: IL-1β Secretion Assay (NLRP3-dependent IL-1β secretion in PMA-differentiated THP-1 cells, nigericin activation, HTRF). Type of test: cell-based. The conditions noted are these: Homo sapiens, THP-1, THP-1 cells, 100 ng/mL PMA 24 h, compound 20 h, 2.5 μM Nigericin 3 h; read-out: IC50 IL-1β Inhibition. A digest of the protocol: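 IL-1β release, quantified by HTRF after nigericin activation of the NLRP3 inflammasome, was the read-out. A logistic fit of percent inhibition gave IC50.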
`COc1cc(C(F)(F)F)ccc1-c1nnc(N2CCCC(N(C)C)C2)c2ccncc12` (stereo not shown) [Compound I-162]: the IC50 fell in the range of 0.01 to 0.1 µM.

As to `CN1CCC[C@@H](Nc2nnc(-c3ccc(Cl)cc3O)c3cncn23)C1` [Compound I-384], the IC50 is below 0.001 µM.

As to `CN1CCC[C@@H](Nc2nnc(-c3c(O)cccc3C#N)c3ccncc23)C1` [Compound I-140], the IC50 was in the range of 0.001 to 0.01 µM.

For `CN1CCC[C@@H](Nc2nnc(-c3ccc(C(F)(F)F)cc3CO)c3ccncc23)C1` [Compound I-190], the IC50 lay in the range of 0.01 to 0.1 µM.

For `CN1C[C@H](F)C[C@@H](Nc2nnc(-c3ccc(OC(F)(F)F)cc3OC(F)F)c3cccn23)C1` [Compound I-521], the IC50 fell in the range of 0.001 to 0.01 µM.

Consider `Oc1cc(C(F)(F)F)ccc1-c1nnc(N[C@@H]2CCCN(C3COC3)C2)c2cnccc12` [Compound I-271], for which the IC50 was 0.001 to 0.01 µM.

Turning to `CN1CCC[C@@H](Nc2nnc(-c3ccc(C(F)(F)F)cc3-c3cccnc3)c3ccncc23)C1` [Compound I-240], the IC50 fell in the range of 0.1 to 0.3 µM.

On to `CN1CCC[C@@H](Nc2nnc(-c3ccc(OC(F)(F)F)cc3O)c3c(F)ccn23)C1` [Compound I-441], for which the IC50 lay within 0.001 to 0.01 µM.

Take `Oc1cc(Br)ccc1-c1nnc(N[C@@H]2CCCOC2)n2nccc12` [Compound I-547]: the IC50 lay in the range of 0.01 to 0.1 µM.

For `Oc1cc(Cl)cc(F)c1-c1nnc(NCC2CCCO2)n2cccc12` (stereo not shown) [Compound I-621], the IC50 lay in the range of 0.01 to 0.1 µM.

Regarding `Cc1cc(F)c(-c2nnc(N[C@@H]3C[C@@H](F)CN(C)C3)n3cccc23)c(OC(F)F)c1` [Compound I-462], the IC50 lay in the range of 0.01 to 0.1 µM.

Consider `CN1CCC[C@@H](Nc2nnc(-c3c(O)cc(C4CC4)cc3F)c3cccn23)C1` [Compound I-380], for which the IC50 is below 0.001 µM.

As for `CN(C)C1CCCN(c2nnc(-c3ccc(C(F)(F)F)cc3O)c3cnccc23)C1` (stereo not shown) [Compound I-152], the IC50 lay in the range of 0.001 to 0.01 µM.

With `C[C@]1(O)C[C@@H](Nc2nnc(-c3ccc(C(F)(F)F)cc3O)c3cccn23)C1` [Compound I-406], the IC50 lay within 0.001 to 0.01 µM.

Consider `FC(F)Oc1cc(C(F)(F)F)ccc1-c1nnc(N[C@@H]2CCCN(C3CCOCC3)C2)n2cccc12` [Compound I-326], for which the IC50 is below 0.001 µM.

For `C[C@H](O)CNc1nnc(-c2c(O)cc(C3CC3)cc2F)c2cccn12` [Compound I-500], the IC50 was in the range of 0.01 to 0.1 µM.

Regarding `CN1CCC[C@@H](Nc2nnc(-c3c(F)ccc(C4CC4)c3O)c3ccncc23)C1` [Compound I-210], the IC50 fell in the range of 0.01 to 0.1 µM.

Regarding `OCCN1CCC[C@@H](Nc2nnc(-c3ccc(C(F)(F)F)cc3O)c3cnccc23)C1` [Compound I-101], the IC50 is below 0.001 µM.

For `COc1cc(Cl)ccc1-c1nnc(N[C@@H]2CCCN(C)C2)n2cncc12` [Compound I-383], the half-inhibitory concentration (IC50) fell in the range of 0.001 to 0.01 µM.

Consider `Cc1ccc(-c2nnc(N[C@@H]3CCCN(C)C3)n3nc(C)cc23)c(OC(F)(F)F)c1` [Compound I-396, (R)-2-Methyl-4-(4-methyl-2-(trifluoromethoxy)phenyl)-N-(1-methylpiperidin-3-yl)pyrazolo[1,5-d][1,2,4]triazin-7-amine], for which the IC50 is 0.01 to 0.1 µM.

Regarding `CN1CCC[C@@H](Nc2nnc(-c3c(O)cccc3F)c3ccccc23)C1` [Compound I-14], the IC50 fell in the range of 0.001 to 0.01 µM.

Take `CN1C[C@H](F)C[C@@H](Nc2nnc(-c3ccc(C(F)(F)F)cc3O)c3cncn23)C1` [Compound I-528]: the IC50 was below 0.001 µM.

Turning to `Oc1cc(C(F)(F)F)ccc1-c1nnc(N[C@@H]2CCCNC2)c2c1CCCC2` [Compound I-11, (R)-2-(4-(Piperidin-3-ylamino)-5,6,7,8-tetrahydrophthalazin-1-yl)-5-(trifluoromethyl)phenol], the IC50 was in the range of 0.01 to 0.1 µM.

As to `FC(F)Oc1cc(C(F)(F)F)ccc1-c1nnc(NC[C@@H]2CCCO2)n2cccc12` [Compound I-610], the IC50 lay within 0.01 to 0.1 µM.

For `CN1CCCC(Cc2nnc(-c3ccc(C(F)(F)F)cc3O)c3ccncc23)C1` (stereo not shown) [Compound I-567], the IC50 lay within 0.01 to 0.1 µM.

For the compound `Oc1cc(C(F)(F)F)ccc1-c1nnc(NC2CNC2)c2ccccc12` [Compound I-109], the IC50 fell in the range of 0.01 to 0.1 µM.

Take `Oc1cc(C(F)(F)F)ccc1-c1nnc(N[C@@H]2CCCN(C3CCOCC3)C2)n2cccc12` [Compound I-343]: the IC50 lay in the range of 0.001 to 0.01 µM.

`CN1CCC[C@@H](Nc2nnc(-c3ccc(C(F)(F)F)cc3O)c3c(Cl)ccn23)C1` [Compound I-104, 2-[8-Chloro-4-[[(3R)-1-methyl-3-piperidyl]amino]pyrrolo[1,2-d][1,2,4]triazin-1-yl]-5-(trifluoromethyl)phenol]: the IC50 is 0.001 to 0.01 µM.

With `CN1CCCC(Cc2nnc(-c3ccc(C(F)(F)F)cc3O)c3ccccc23)C1` (stereo not shown) [Compound I-44], the IC50 is 0.001 to 0.01 µM.

For `Cc1ncc2c(-c3ccc(C(F)(F)F)cc3O)nnc(N[C@@H]3CCCN(C)C3)n12` [Compound I-543, (R)-2-(6-Methyl-4-((1-methylpiperidin-3-yl)amino)imidazo[1,5-d][1,2,4]triazin-1-yl)-5-(trifluoromethyl)phenol], the IC50 was below 0.001 µM.

In the case of `CN1CCC[C@@H](Nc2nnc(-c3ccc(C4CC4)cc3OC(F)F)c3c2CCC3)C1` [Compound I-246], the IC50 was 0.01 to 0.1 µM.

In the case of `Cc1cc2c(-c3c(O)cc(C(F)(F)F)cc3F)nnc(N[C@@H]3CCCN(C)C3)n2c1` [Compound I-607], the IC50 is below 0.001 µM.

For the compound `CO[C@H]1CCC[C@@H](Nc2nnc(-c3ccc(C(F)(F)F)cc3O)c3ccncc23)C1` [Compound I-308], the IC50 was below 0.001 µM.

As to `CN1CC[C@H](F)[C@@H](Nc2nnc(-c3ccc(C(F)(F)F)cc3O)c3cccn23)C1` [Compound I-478], the IC50 lay in the range of 0.01 to 0.1 µM.

For `Oc1cc(OC(F)(F)F)ccc1-c1nnc(N[C@@H]2CCCNC2)n2cccc12` [Compound I-365], the IC50 was in the range of 0.01 to 0.1 µM.

On to `CN1CCC[C@@H](Nc2nnc(-c3ccc(C(F)(F)F)cc3S(N)(=O)=O)c3ccncc23)C1` [Compound I-156, (R)-2-(4-((1-methylpiperidin-3-yl)amino)pyrido[3,4-d]pyridazin-1-yl)-5-(trifluoromethyl)benzene-sulfonamide], for which the IC50 lay in the range of 0.1 to 0.3 µM.

On to `CN1CCC[C@@H](Nc2nnc(-c3ncc(C4CC4)cc3O)c3ccccc23)C1` [Compound I-91, (R)-5-Cyclopropyl-2-(4-((1-methylpiperidin-3-yl)amino)phthalazin-1-yl)pyridin-3-ol], for which the IC50 was below 0.001 µM.

For `COc1cc(Br)ccc1-c1nnc(N[C@@H]2CCCN(C)C2)n2nccc12` [Compound I-451], the IC50 is 0.01 to 0.1 µM.

In the case of `Cc1cccc(O)c1-c1nnc(N[C@@H]2CCCN(C)C2)c2ccccc12` [Compound I-50], the IC50 was below 0.001 µM.

Take `CC(C)(O)CN1CCC[C@@H](Nc2nnc(-c3ccc(C(F)(F)F)cc3O)c3ccncc23)C1` [Compound I-286]: the IC50 was below 0.001 µM.

Turning to `CCN1CCC[C@@H](Nc2nnc(-c3c(O)cc(C4CC4)cc3F)c3cccn23)C1` [Compound I-495], the IC50 was below 0.001 µM.

On to `FC(F)Oc1cc(C(F)(F)F)ccc1-c1nnc(N[C@@H]2CCCOC2)n2cccc12` [Compound I-376], for which the IC50 fell in the range of 0.001 to 0.01 µM.

Consider `Cc1cc(O)c(-c2nnc(N[C@@H]3CCCN(C)C3)c3ccccc23)cc1F` [Compound I-18], for which the IC50 is 0.001 to 0.01 µM.

On to `CN1C[C@H](F)C[C@@H](Nc2nnc(-c3ccc(Br)cc3O)c3ccnn23)C1` [Compound I-546, 5-Bromo-2-(7-(((3R,5R)-5-fluoro-1-methylpiperidin-3-yl)amino)pyrazolo[1,5-d][1,2,4]triazin-4-yl)phenol], for which the IC50 is 0.001 to 0.01 µM.

Regarding `OCCN1CCC[C@@H](Nc2nnc(-c3ccc(OC(F)F)cc3OC(F)F)c3cccn23)C1` [Compound I-614], the IC50 was 0.001 to 0.01 µM.

On to `OCCN1CCC[C@@H](Nc2nnc(-c3c(O)cc(C(F)(F)F)cc3F)c3cccn23)C1` [Compound I-415], for which the IC50 fell in the range of 0.001 to 0.01 µM.

Take `COc1ccc(-c2nnc(N[C@H]3C[C@](C)(O)C3)n3cccc23)c(OC(F)F)c1` [Compound I-472]: the IC50 is 0.01 to 0.1 µM.

For the compound `CN1CCC[C@@H](Nc2nnc(-c3ccc(OC(F)(F)F)cc3O)c3cccn23)C1` [Compound I-366], the IC50 was in the range of 0.001 to 0.01 µM.

On to `Cc1noc2c(-c3ccc(C(F)(F)F)cc3O)nnc(N[C@@H]3CCCN(C)C3)c12` [Compound I-255, 2-[3-methyl-4-[[(3R)-1-methyl-3-piperidyl]amino]isoxazolo[4,5-d]pyridazin-7-yl]-5-(trifluoromethyl)phenol], for which the IC50 lay in the range of 0.001 to 0.01 µM.

With `OCCN1CCC[C@@H](Nc2nnc(-c3ccc(Cl)cc3C(F)F)c3cccn23)C1` [Compound I-506], the IC50 was in the range of 0.01 to 0.1 µM.

Turning to `CN1CCC[C@@H](Nc2nnc(-c3ccc(C(F)(F)F)cc3C(N)=O)c3ccncc23)C1` [Compound I-182], the IC50 is 0.01 to 0.1 µM.

For the compound `COc1cc(C(F)(F)F)ccc1-c1nnc(N[C@@H]2CCCN(C)C2)c2c1cnn2C` [Compound I-144, 4-[2-Methoxy-4-(trifluoromethyl)phenyl]-1-methyl-N-[(3R)-1-methyl-3-piperidyl]pyrazolo[3,4-d]pyridazin-7-amine], the IC50 is 0.001 to 0.01 µM.

As for `CC(CO)N1CCC[C@H](Nc2nnc(-c3ccc(Br)cc3O)c3cccn23)C1` (stereo partly shown) [Compound I-552], the IC50 was 0.001 to 0.01 µM.

As to `Oc1cc(C(F)(F)F)ccc1-c1nnc(N[C@H]2CCOC2)n2cccc12` [Compound I-459], the IC50 was in the range of 0.01 to 0.1 µM.

Take `FC(F)Oc1cc(C(F)(F)F)ccc1-c1nnc(N[C@@H]2CCCN(CC(F)(F)F)C2)n2cccc12` [Compound I-494]: the IC50 is 0.1 to 0.3 µM.

For `C[C@]1(O)C[C@@H](Nc2nnc(-c3ccc(C(F)(F)F)cc3O)c3ccncc23)C1` [Compound I-305], the IC50 is below 0.001 µM.

`CN1CCC[C@@H](Nc2nnc(-c3ccc(Br)cc3O)c3cccn23)C1` [Compound I-484, (R)-5-Bromo-2-(4-((1-methylpiperidin-3-yl)amino)pyrrolo[1,2-d][1,2,4]triazin-1-yl)phenol]: the IC50 was in the range of 0.001 to 0.01 µM.

For the compound `CN1C[C@@H](O)C[C@@H](Nc2nnc(-c3ccc(C(F)(F)F)cc3O)c3ccccc23)C1` [Compound I-63], the IC50 was 0.001 to 0.01 µM.
